Experiments:
Format in all cases: cell-based
Nox5 = molecular target: T1, Nox5 (Homo sapiens, UniProt Q96PH1); test: O2- production by lysates of HEK293 cells stably transfected with Nox5 oxidase, Ca2+-stimulated (cytochrome c); conditions: 0.1 nM to 10,000 nM
T1 construct: expressed in transfected cells; cell lysates
T1 sequence (Q96PH1 1-765): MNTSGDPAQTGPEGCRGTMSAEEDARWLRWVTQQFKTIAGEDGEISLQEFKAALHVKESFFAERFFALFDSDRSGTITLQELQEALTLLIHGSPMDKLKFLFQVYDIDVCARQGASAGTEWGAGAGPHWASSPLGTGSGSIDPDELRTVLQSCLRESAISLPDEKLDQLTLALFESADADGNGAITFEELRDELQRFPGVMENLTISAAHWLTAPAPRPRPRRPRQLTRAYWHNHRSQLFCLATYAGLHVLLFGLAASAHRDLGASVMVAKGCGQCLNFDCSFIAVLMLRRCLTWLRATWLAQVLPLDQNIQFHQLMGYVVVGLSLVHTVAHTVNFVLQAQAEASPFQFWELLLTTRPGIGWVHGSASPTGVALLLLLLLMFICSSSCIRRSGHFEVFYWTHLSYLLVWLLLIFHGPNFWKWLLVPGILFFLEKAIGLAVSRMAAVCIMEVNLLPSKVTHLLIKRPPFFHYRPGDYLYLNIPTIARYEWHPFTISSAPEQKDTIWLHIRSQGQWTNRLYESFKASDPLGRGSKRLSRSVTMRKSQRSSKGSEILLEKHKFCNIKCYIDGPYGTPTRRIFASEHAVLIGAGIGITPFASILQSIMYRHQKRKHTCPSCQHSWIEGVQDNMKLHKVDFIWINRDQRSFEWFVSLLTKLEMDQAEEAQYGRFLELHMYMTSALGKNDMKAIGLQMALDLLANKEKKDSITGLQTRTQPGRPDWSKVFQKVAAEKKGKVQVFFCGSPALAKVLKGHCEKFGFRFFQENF
Procedure: To test whether the inhibitory effect of NoxA1ds is specific to Nox1, the effect of NoxA1ds was tested on cells expressing Nox2, Nox4, and Nox5 as well as on purified xanthine oxidase enzyme. To test the effect on Nox2, production of O2^− was measured by the reduction of cytochrome c by cell lysates from COS cells transiently transfected with the Nox2 oxidase, stimulated with LiDS, and the treated with increasing concentrations of NoxA1ds (from 0.1 nM to 10,000 nM). Similarly, production of H2O2 was measured by Amplex red fluorescence by COS cells transiently transfected with the Nox4 oxidase and treated with increasing concentrations of NoxA1ds (from 100 nM to 10,000 nM). Production of O2^− was also measured by the reduction of cytochrome c by cell lysates from HEK293 cells stably transfected with the Nox5 oxidase stimulated with Ca^2+, and treated with increasing concentrations of NoxA1ds (from 0.1 nM to 10,000 nM). Finally, production of O2^− was measured by Electron Paramagnetic Resonance from pure xanthine oxidase enzyme preparations, stimulated with hypoxanthine and treated with increasing concentrations of NoxA1ds (from 0.1 nM to 10,000 nM).

Nox1 = molecular target: T2, Nox1 (Homo sapiens, UniProt Q9Y5S8); test: O2- production by COS22 cells transfected with Nox1 (cytochrome c reduction); conditions: COS 22; at a dose of 1.0 μM; read-out: Maximal inhibition of total O2- production
T2 construct: expressed in transfected cells; host or cells: COS22 (monkey kidney COS cells stably expressing human p22phox)
T2 sequence (Q9Y5S8 1-564): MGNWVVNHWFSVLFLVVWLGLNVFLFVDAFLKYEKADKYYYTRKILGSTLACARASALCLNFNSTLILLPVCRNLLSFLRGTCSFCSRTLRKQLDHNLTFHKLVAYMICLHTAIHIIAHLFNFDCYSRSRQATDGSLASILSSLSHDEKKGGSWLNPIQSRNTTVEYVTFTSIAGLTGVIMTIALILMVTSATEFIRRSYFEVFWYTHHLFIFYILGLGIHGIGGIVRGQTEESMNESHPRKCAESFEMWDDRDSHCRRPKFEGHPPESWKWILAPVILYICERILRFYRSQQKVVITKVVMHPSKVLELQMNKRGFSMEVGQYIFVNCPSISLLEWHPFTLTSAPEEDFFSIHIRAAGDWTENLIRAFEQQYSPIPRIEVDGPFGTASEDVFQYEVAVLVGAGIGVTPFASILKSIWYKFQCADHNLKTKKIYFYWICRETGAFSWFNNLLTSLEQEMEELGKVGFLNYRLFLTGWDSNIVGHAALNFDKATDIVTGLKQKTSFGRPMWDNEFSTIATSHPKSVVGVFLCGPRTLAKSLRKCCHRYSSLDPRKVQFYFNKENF
T2 sequence (P13498 1-195 partner): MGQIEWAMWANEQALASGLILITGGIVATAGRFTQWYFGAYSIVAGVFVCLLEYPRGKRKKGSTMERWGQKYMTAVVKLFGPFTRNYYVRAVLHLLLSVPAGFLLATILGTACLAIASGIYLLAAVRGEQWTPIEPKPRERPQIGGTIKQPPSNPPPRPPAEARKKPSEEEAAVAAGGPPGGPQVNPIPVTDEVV
Procedure: Experiments were performed to test the effect of NoxA1ds on O2^− production by Nox1. COS22 is a monkey kidney COST cell line expressing transgenic human p22phox and was produced by stable transfection of the full-length p22phox cDNA into parental COST wild-type cells. COS22 cells were transfected with Nox1 to express the Nox1 enzyme and were then treated with either NoxA1ds or its scrambled control (SCRMB). Production of O2^− was calculated by monitoring the reduction of cytochrome c for 15 minutes post NADPH addition and subtracting baseline cytochrome c reduction occurring in the presence of SOD.

[1] = tested on: human pulmonary artery endothelial cells; test: Hypoxia-induced superoxide production by human pulmonary artery endothelial cells
Procedure: Experiments were also performed to evaluate the effect of NoxA1ds on hypoxia-induced superoxide production by human pulmonary artery endothelial cells.

[2] = molecular target: T3, interaction between Nox1 and NoxA1 (Homo sapiens, UniProt Q9Y5S8); test: FRET between Nox1-YFP and NoxA1-CFP in transfected COS22 cells; conditions: 10 μM, one hour prior to imaging
T3 construct: expressed in transfected cells; host or cells: COS22
T3 sequence (Q9Y5S8 1-564): T2 sequence (Q9Y5S8 1-564)
T3 sequence (P13498 2-195 partner limits assumed): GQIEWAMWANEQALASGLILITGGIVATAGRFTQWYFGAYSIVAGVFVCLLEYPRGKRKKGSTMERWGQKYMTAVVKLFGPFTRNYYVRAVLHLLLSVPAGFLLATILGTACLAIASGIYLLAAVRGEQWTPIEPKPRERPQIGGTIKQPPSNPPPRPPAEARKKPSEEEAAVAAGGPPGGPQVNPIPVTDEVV
Procedure: FRET (fluorescence resonance energy transfer) studies were performed to study the effect of NoxA1ds on the interaction between Nox1 and NoxA1: In particular, FRET between Nox1-YFP and NoxA1-CFP transfected COS22 cells in the presence or absence of 10 μM NoxA1ds or SCRMB was evaluated. Relative fluorescence of CFP is green while YFP is red. Traces underneath the images indicate fluorescent intensities of CFP and YFP underneath the arrow overlaid on each cell.

H-EPVDALGKAKV-NH2 [NoxA1ds, [NH3^+]-EPVDALGKAKV-[CONH2]]
Inhibitory effect on Nox5 O2- production (Nox5): did not exhibit a significant inhibitory effect | inhibition at 1 µM (Nox1): 88% | O2- production under hypoxia ([1]; hypoxia 1.0% O2, 24 hrs): returned to the amount observed under normoxia | O2- production under normoxic conditions ([1]; normoxia): negligible effect | CFP fluorescence after photobleaching of Nox1-YFP (FRET) [2]: did not result in a concomitant increase in CFP fluorescence
